Data published in patent publication US4452782A, “Pentadecapeptide” (Hoffmann-La Roche Inc., priority 1979, dated 1984).

Experiments:
C. albicans = experiment: Protective activity against lethal infection in mice immunosuppressed with 5-fluorouracil; type: in vivo; details: 5-fluorouracil 25 mg/kg/day × 10 i.p. alone; 1 × 10^5 i.v.
Procedure: (§1) The effect was further extended against microbial infections in mice immunosuppressed by treatment of a cytostatic. Mice pretreated daily for 10 times with 5-fluorouracil (25 mg/kg/day, i.p.) were infected by either Ps. aeruginosa or C. albicans and the survivals were recorded on day 15.
(§2) C. albicans and Ps. aeruginosa were infected intravenously with 1 ×

Ps. aeruginosa = experiment: as above; type: in vivo; details: 5-fluorouracil 25 mg/kg/day × 10 i.p. alone; 4 × 10^4 i.v.
Procedure: as §1, §2

Lewis lung carcinoma [1] = experiment: Suppression of growth of Lewis lung carcinoma metastasized to lung after amputation and cyclophosphamide (Table 7); type: in vivo, mice; details: cyclophosphamide 50 mg/kg i.p. × 1 alone after amputation; day 27
Procedure: The major problem in the treatment of cancer patient after surgical elimination of tumor is the prevention of metastasis of the tumor.
(§3) Lewis lung carcinoma (1×10^6) was implanted into footpad and at day 10 the advanced tumor was excised by amputation of the leg with the tumor developed. Then the mice were treated with cyclophosphamide (50 mg/kg, i.p.) 24 hrs later and at day 27 the dry weight of the tumor metastasized to lung was measured.

Lewis lung carcinoma [2] = experiment: Survival of mice with Lewis lung carcinoma in combination with cyclophosphamide and surgery (Table 8); type: in vivo; details: cyclophosphamide 50 mg/kg i.p. × 1 alone
Procedure: as §3
On the other hand, the effect of the peptide on survival of the mice, which were amputated the advanced tumor and treated with cyclophosphamide, was examined. The experimental conditions were identical to the above experiment except that the advanced tumor was excised at day 12 and the mice were treated with cyclophosphamide at day 13.

Compound | Suppressive activity against lethal infection (survivals at day 15) (C. albicans) | Suppressive activity against lethal infection (survivals at day 15) (Ps. aeruginosa) | dry weight of the tumor metastasized (mg ± S.D.) (Lewis lung carcinoma [1]) [mg] | Survivals at day 100 (Lewis lung carcinoma [2]) | Mean survival days (Lewis lung carcinoma [2]; days after tumor implantation) [days]
O=c1[nH]cc(F)c(=O)[nH]1 [5-fluorouracil] | 5/35 | 2/7 | – | – | –
O=P1(N(CCCl)CCCl)NCCCO1 (centres unmarked) [Cyclophosphamide] | – | – | 45.9 ± 30.6 | 2/12 | 32.6 ± 3.2
